Assay results published in the Deep4Chem optical property database.
“And” between values parts separate entries of the source, which are not always exact repeats. Equal entries are not always repeated.

Assay: solvent given as SMILES

In the case of `C#CCNC1=C2C=CC=[N+]2[B-](F)(F)n2cccc21`, the absorption maximum (in C1CCCCC1) is reported as 422.5 nm and 426 nm, the absorption maximum (in CC(C)=O) is reported as 406 nm and the absorption maximum (in CCCCO) is reported as 406 nm. For the same molecule, the absorption maximum (in CCCO) was 408 nm, the absorption maximum (in CCO) was 406.5 nm and 406 nm and the absorption maximum (in CCOC(C)=O) was 408.5 nm. It also gave an absorption maximum (in CN(C)C=O) of 404 nm, an absorption maximum (in CO) of 405 nm and an absorption maximum (in CS(C)=O) of 404 nm. For the same molecule, the absorption maximum (in Cc1ccccc1) was 421 nm, the absorption maximum (in ClC(Cl)Cl) was 418 nm and the absorption maximum (in OCC(F)(F)F) was 404 nm. It also gave an absorption maximum (in c1ccccc1) of 422 nm.

Work on `CN(C)c1ccc(C2=Nc3scc[n+]3[B-](F)(F)O2)cc1` yielded an absorption maximum (in C1CCOC1) of 402 nm, an absorption maximum (in CC#N) of 402 nm and an absorption maximum (in Cc1ccccc1) of 405 nm. It also gave an absorption maximum (in ClCCl) of 407 nm.

In the case of `CCCCCCCCN1C(=O)c2ccc3c4c(-c5ccc6c(c5)c5ccccc5n6-c5ccccc5)cc5c6c(ccc(c7c(-c8ccc9c(c8)c8ccccc8n9-c8ccccc8)cc(c2c37)C1=O)c64)C(=O)N(CCCCCCCC)C5=O`, the absorption maximum (in ClC(Cl)Cl) is reported as 609 nm.

With `CC1(C)c2ccccc2N(c2ccc(-c3ccc(C#N)cc3)cc2)c2ccccc21` the absorption maximum (in Cc1ccccc1) was 358 nm.

Work on `CC(C)(C)c1ccc2c(c1)c1cc(C(C)(C)C)ccc1n2-c1ccc(C#Cc2ccc3c4ccc(C#Cc5ccc(/C=C(/C#N)C(=O)O)cc5)cc4n(-c4ccc(C(F)(F)F)cc4)c3c2)cc1` yielded an absorption maximum (in ClCCl) of 386 nm.

`COc1ccc(-c2cc3c4c(c2)CCc2cc(-c5ccc(OC)cc5)cc(c2-4)CC3)cc1` showed an absorption maximum (in ClC(Cl)Cl) of 332.1 nm.

With `COc1ccc(-c2c3ccccc3c3n2[B-](F)(F)[N+]2=Cc4c5ccccc5c(-c5ccc(OC)cc5)n4[B-](F)(F)[N+]2=C3)cc1` the absorption maximum (in CC#N) was 561 nm, the absorption maximum (in CCCCCC) was 573 nm and the absorption maximum (in CN(C)C=O) was 569 nm. For the same molecule, the absorption maximum (in Cc1ccccc1) was 579 nm and the absorption maximum (in ClCCl) was 571 nm.

Work on `Cc1ccc(N(c2ccc(C)cc2)c2ccc(-c3cc4c(cc(-c5ccc(N(c6ccc(C)cc6)c6ccc(C)cc6)cc5)c5nsnc54)c4nsnc34)cc2)cc1` yielded an absorption maximum (in Cc1ccccc1) of 520 nm and an absorption maximum (in ClCCl) of 518 nm.

Work on `CN(C)c1nc(N(C)C)c2nc(C#N)n(Cc3ccccc3)c2n1` yielded an absorption maximum (in C1COCCO1) of 345 nm, an absorption maximum (in CC#N) of 344 nm and an absorption maximum (in CO) of 342 nm. It also gave an absorption maximum (in ClCCl) of 348 nm.

`CCOC(=O)COc1ccc(/C=C/c2cc(C)c3n2[B-](F)(F)[N+]2=C(c4[nH]c(C)cc4C)c4ccccc4C2=C3)cc1` gave an absorption maximum (in C1CCOC1) of 679 nm, an absorption maximum (in CC#N) of 670 nm and an absorption maximum (in CCCCCC) of 679 nm. It also gave an absorption maximum (in CO) of 671 nm, an absorption maximum (in Cc1ccccc1) of 678 nm and an absorption maximum (in ClCCl) of 680 nm.

For `N#CC1=C(N)n2c(=O)c3ccccc3c(=O)n2C1c1ccccc1` (stereo unspecified), the absorption maximum (in CS(C)=O) was 360 nm.

For `Cc1c2ccc(=[N+]3CCCCC3)cc-2oc2cc(N3CCCCC3)ccc12`, the absorption maximum (in ClCCl) was 555 nm.

For `N#CC(C#N)=C(c1cccc(N(c2ccccc2)c2ccccc2)c1)c1cccc(N(c2ccccc2)c2ccccc2)c1`, the absorption maximum (in C1CCCCC1) was 367.69 nm, the absorption maximum (in CC(C)=O) was 371.43 nm and the absorption maximum (in CN(C)C=O) was 374.84 nm. The absorption maximum (in Cc1ccccc1) was 374.84 nm and the absorption maximum (in ClC(Cl)Cl) was 382.14 nm.

With `CCCN1c2ccc(C#CC3=C4C=CC=[N+]4[B-](F)(F)n4cccc43)cc2Sc2cc(C#CC3=C4C=CC=[N+]4[B-](F)(F)n4cccc43)ccc21` the absorption maximum (in ClCCl) was 542 nm.

`F[B-]1(F)n2c(cc3c4ccccc4oc32)C(c2ccccc2)=C2C=c3c(oc4ccccc34)=[N+]21` showed an absorption maximum (in C1CCCCC1) of 586 nm, an absorption maximum (in CCOC(C)=O) of 581 nm and an absorption maximum (in CO) of 579 nm.

In the case of `c1ccc(N(c2ccccc2)c2ccc3c(c2)-c2ccccc2C32c3ccccc3-n3c4ccccc4c4cccc2c43)cc1` (stereo unspecified), the absorption maximum (in ClCCl) is reported as 354 nm.

`COC(=O)/C=C/c1sc(-c2ccc(N(C)C)cc2)cc1N` showed an absorption maximum (in CC#N) of 419 nm.
